The values that follow come from patent US11180474B2 (BRISTOL-MYERS SQUIBB COMPANY, priority 2016, dated 2021).

Where only a bound is given, the exact number is not on record here.

The target of this experiment is T1, human TLR9 (Homo sapiens, UniProt Q9NR96).
T1 construct: host or cells: HEK-Blue cells
T1 sequence (Q9NR96 26-1032): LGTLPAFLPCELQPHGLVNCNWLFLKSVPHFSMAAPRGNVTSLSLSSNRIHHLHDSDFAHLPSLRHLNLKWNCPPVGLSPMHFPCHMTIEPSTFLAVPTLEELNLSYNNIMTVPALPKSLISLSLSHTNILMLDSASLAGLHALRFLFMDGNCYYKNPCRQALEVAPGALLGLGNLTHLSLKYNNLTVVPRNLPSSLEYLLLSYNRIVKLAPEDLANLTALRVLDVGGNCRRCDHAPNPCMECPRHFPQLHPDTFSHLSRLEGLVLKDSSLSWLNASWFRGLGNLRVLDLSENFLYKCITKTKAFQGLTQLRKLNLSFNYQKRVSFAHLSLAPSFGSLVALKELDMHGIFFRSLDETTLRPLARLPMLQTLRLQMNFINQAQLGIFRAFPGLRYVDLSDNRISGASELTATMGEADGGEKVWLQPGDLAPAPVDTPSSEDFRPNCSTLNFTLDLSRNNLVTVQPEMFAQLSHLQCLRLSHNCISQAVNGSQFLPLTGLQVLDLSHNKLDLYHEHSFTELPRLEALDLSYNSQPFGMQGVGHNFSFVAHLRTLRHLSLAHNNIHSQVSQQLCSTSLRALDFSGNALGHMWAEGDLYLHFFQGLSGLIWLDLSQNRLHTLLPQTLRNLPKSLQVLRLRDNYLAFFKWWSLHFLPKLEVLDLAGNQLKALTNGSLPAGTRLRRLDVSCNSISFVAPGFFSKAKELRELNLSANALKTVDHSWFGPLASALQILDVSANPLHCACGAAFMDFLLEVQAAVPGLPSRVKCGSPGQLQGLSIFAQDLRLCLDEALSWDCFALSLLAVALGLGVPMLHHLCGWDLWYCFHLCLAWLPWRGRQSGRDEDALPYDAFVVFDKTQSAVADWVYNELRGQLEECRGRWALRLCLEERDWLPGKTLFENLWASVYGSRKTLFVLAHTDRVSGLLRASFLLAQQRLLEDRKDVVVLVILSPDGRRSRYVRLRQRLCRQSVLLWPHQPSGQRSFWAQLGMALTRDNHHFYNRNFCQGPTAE
Put plainly: TLR9 inhibition reporter assay (HEK-Blue cells, SEAP reporter, ODN2006 stimulation). The following applies: HEK-Blue cells overexpressing human TLR9, ODN2006 5 nM. It counts as cell-based. Put shortly:
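Compound treatment: 30 min, RT, 0.05 nM–50 μM final. Agonist: TLR7 gardiquimod 7.5 μM; TLR8 R848 15.9 μM; TLR9 ODN2006 5 nM. Incubation 22 h, 37 °C, 5% CO2. Readout SEAP, HEK-Blue Detection.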
Turning to `COc1ccc(-c2[nH]c3ccc(C4CCNCC4F)cc3c2C(C)C)cc1OC` (racemic) [Example 319, 2-(3,4-dimethoxyphenyl)-5-(3-fluoropiperidin-4-yl)-3-isopropyl-1H-indole], the IC50 (usually the concentration that gives 50% inhibition) is 9.11 µM.

The compound `COc1ccc(-c2[nH]c3ccc(C4CCNCC4F)cc3c2C(C)C)cc1OC` (racemic) [Example 320, 2-(3,4-dimethoxyphenyl)-5-(3-fluoropiperidin-4-yl)-3-isopropyl-1H-indole] yielded an IC50 of 5.02 µM.

Regarding `COc1ccc(-c2[nH]c3ccc(C4CCNCC4F)cc3c2C(C)C)cc1OC` (single isomer, unassigned) [Example 321, 2-(3,4-dimethoxyphenyl)-5-(3-fluoropiperidin-4-yl)-3-isopropyl-1H-indole], the IC50 is 4.5 µM.

Turning to `COc1ccc(-c2[nH]c3ccc(C4CCNCC4F)cc3c2C(C)C)cc1OC` (single isomer, unassigned) [Example 322, 2-(3,4-dimethoxyphenyl)-5-(3-fluoropiperidin-4-yl)-3-isopropyl-1H-indole], half-maximal inhibition (IC50) required 2.79 µM.

Regarding `COc1ccc(-c2[nH]c3ccc(C4CCNCC4F)cc3c2C(C)C)cc1OC` (single isomer, unassigned) [Example 323, 2-(3,4-dimethoxyphenyl)-5-(3-fluoropiperidin-4-yl)-3-isopropyl-1H-indole], the IC50 was determined as 2.87 µM.

`COc1ccc(-c2[nH]c3ccc(C4CCNCC4F)cc3c2C(C)C)cc1OC` (single isomer, unassigned) [Example 324, 2-(3,4-dimethoxyphenyl)-5-(3-fluoropiperidin-4-yl)-3-isopropyl-1H-indole] yielded an IC50 of 3.53 µM.

`CCN1CCCC(N2CCC(c3ccc4[nH]c(-c5ccc(OC)c(OC)c5)c(C)c4c3)CC2)C1` (stereo not drawn) [Example 24, 2-(3,4-dimethoxyphenyl)-5-(1′-ethyl-[1,3′-bipiperidin]-4-yl)-3-methyl-1H-indole] gave an IC50 of 17.5 µM.

Regarding `COc1ccc(-c2[nH]c3ccc(C4CCNCC4(F)F)cc3c2C(C)C)cc1OC` (stereo not drawn) [Example 325, 5-(3,3-difluoropiperidin-4-yl)-2-(3,4-dimethoxyphenyl)-3-isopropyl-1H-indole], the IC50 is at least 50 µM.

Regarding `COc1ccc(-c2[nH]c3ccc(C4CCNC(=O)C4)cc3c2C(C)C)cc1OC` (stereo not drawn) [Example 326, 4-(2-(3,4-dimethoxyphenyl)-3-isopropyl-1H-indol-5-yl)piperidin-2-one], the IC50 is at least 50 µM.

`COc1ccc(-c2[nH]c3ccc(C4CCNCC4)cc3c2CC(F)(F)F)cc1OC` [Example 329, 2-(3,4-dimethoxyphenyl)-5-(piperidin-4-yl)-3-(2,2,2-trifluoroethyl)-1H-indole]: half-maximal inhibition (IC50) required 1.16 µM.

`COc1ccc(-c2[nH]c3ccc(C4CCN(C(=O)CCN5CCCCC5)CC4)cc3c2CC(F)(F)F)cc1OC` [Example 330, 1-(4-(2-(3,4-dimethoxyphenyl)-3-(2,2,2-trifluoroethyl)-1H-indol-5-yl)piperidin-1-yl)-3-(piperidin-1-yl)propan-1-one]: the IC50 stood at 1.61 µM.

On to `COc1ccc(-c2[nH]c3ccc(C4CCN(C(=O)CCCn5ccnc5)CC4)cc3c2CC(F)(F)F)cc1OC` [Example 331, 1-(4-(2-(3,4-dimethoxyphenyl)-3-(2,2,2-trifluoroethyl)-1H-indol-5-yl)piperidin-1-yl)-4-(1H-imidazol-1-yl)butan-1-one], for which half-maximal inhibition (IC50) was put at 5.23 µM.

Compound `COc1ccc(-c2[nH]c3ccc(C4CCN(C(=O)Cc5c[nH]c6ccccc56)CC4)cc3c2CC(F)(F)F)cc1OC` [Example 332, 1-(4-(2-(3,4-dimethoxyphenyl)-3-(2,2,2-trifluoroethyl)-1H-indol-5-yl)piperidin-1-yl)-2-(1H-indol-3-yl)ethan-1-one] came in with an IC50 of at least 50 µM.

With `COc1ccc(-c2[nH]c3ccc(C4CCN(C(=O)CCC(N)=O)CC4)cc3c2CC(F)(F)F)cc1OC` [Example 333, 4-(4-(2-(3,4-dimethoxyphenyl)-3-(2,2,2-trifluoroethyl)-1H-indol-5-yl)piperidin-1-yl)-4-oxobutanamide], the IC50 is at least 50 µM.

Take `COc1ccc(-c2[nH]c3ccc(C4CCN(C(=O)Cc5c[nH]cn5)CC4)cc3c2CC(F)(F)F)cc1OC` [Example 334, 1-(4-(2-(3,4-dimethoxyphenyl)-3-(2,2,2-trifluoroethyl)-1H-indol-5-yl)piperidin-1-yl)-2-(1H-imidazol-4-yl)ethan-1-one]: half-maximal inhibition (IC50) required 7.77 µM.

In turn, `COc1ccc(-c2[nH]c3ccc(C4CCN(C(=O)Cc5cccnc5)CC4)cc3c2CC(F)(F)F)cc1OC` [Example 335, 1-(4-(2-(3,4-dimethoxyphenyl)-3-(2,2,2-trifluoroethyl)-1H-indol-5-yl)piperidin-1-yl)-2-(pyridin-3-yl)ethan-1-one] yielded an IC50 of 15.3 µM.

On to `COc1ccc(-c2[nH]c3ccc(C4CCN(C(=O)[C@@H]5CCCN5C(C)=O)CC4)cc3c2CC(F)(F)F)cc1OC` [Example 336, (S)-1-(2-(4-(2-(3,4-dimethoxyphenyl)-3-(2,2,2-trifluoroethyl)-1H-indol-5-yl)piperidine-1-carbonyl)pyrrolidin-1-yl)ethan-1-one], for which the IC50 was determined as 27.8 µM.

For `COc1ccc(-c2[nH]c3ccc(C4CCN(C(=O)CCn5ccc6ccccc65)CC4)cc3c2CC(F)(F)F)cc1OC` [Example 337, 1-(4-(2-(3,4-dimethoxyphenyl)-3-(2,2,2-trifluoroethyl)-1H-indol-5-yl)piperidin-1-yl)-3-(1H-indol-1-yl)propan-1-one], the 50% inhibitory concentration (IC50) is at least 50 µM.

Consider `COc1ccc(-c2[nH]c3ccc(C4CCN(C(=O)Cc5ccc(N(C)C)cc5)CC4)cc3c2CC(F)(F)F)cc1OC` [Example 338, 1-(4-(2-(3,4-dimethoxyphenyl)-3-(2,2,2-trifluoroethyl)-1H-indol-5-yl)piperidin-1-yl)-2-(4-(dimethylamino)phenyl)ethan-1-one], for which the half-inhibitory concentration (IC50) is at least 50 µM.

Compound `COc1ccc(-c2[nH]c3ccc(C4CCN(C(=O)CC(F)(F)F)CC4)cc3c2CC(F)(F)F)cc1OC` [Example 339, 1-(4-(2-(3,4-dimethoxyphenyl)-3-(2,2,2-trifluoroethyl)-1H-indol-5-yl)piperidin-1-yl)-3,3,3-trifluoropropan-1-one] gave a concentration for half-maximal inhibition (IC50) of at least 50 µM.

The compound `COc1ccc(-c2[nH]c3ccc(C4CCN(C(=O)CCN(C)C)CC4)cc3c2CC(F)(F)F)cc1OC` [Example 340, 1-(4-(2-(3,4-dimethoxyphenyl)-3-(2,2,2-trifluoroethyl)-1H-indol-5-yl)piperidin-1-yl)-3-(dimethylamino)propan-1-one] had an IC50 of 0.914 µM.

Compound `COc1ccc(-c2[nH]c3ccc(C4CCN(C(=O)Cc5nnn[nH]5)CC4)cc3c2CC(F)(F)F)cc1OC` [Example 341, 1-(4-(2-(3,4-dimethoxyphenyl)-3-(2,2,2-trifluoroethyl)-1H-indol-5-yl)piperidin-1-yl)-2-(1H-tetrazol-5-yl)ethan-1-one] returned a 50% inhibitory concentration (IC50) of at least 50 µM.

`COc1ccc(-c2[nH]c3ccc(C4CCN(C(=O)Cc5cnccn5)CC4)cc3c2CC(F)(F)F)cc1OC` [Example 342, 1-(4-(2-(3,4-dimethoxyphenyl)-3-(2,2,2-trifluoroethyl)-1H-indol-5-yl)piperidin-1-yl)-2-(pyrazin-2-yl)ethan-1-one]: it took 26.4 µM to reach half-maximal inhibition (IC50).

The compound `COc1ccc(-c2[nH]c3ccc(C4CCN(C(=O)CCCNC(C)=O)CC4)cc3c2CC(F)(F)F)cc1OC` [Example 343, N-(4-(4-(2-(3,4-dimethoxyphenyl)-3-(2,2,2-trifluoroethyl)-1H-indol-5-yl)piperidin-1-yl)-4-oxobutyl)acetamide] returned an IC50 of 40.8 µM.

The compound `COc1ccc(-c2[nH]c3ccc(C4CCN(C(=O)CCn5cccc5)CC4)cc3c2CC(F)(F)F)cc1OC` [Example 344, 1-(4-(2-(3,4-dimethoxyphenyl)-3-(2,2,2-trifluoroethyl)-1H-indol-5-yl)piperidin-1-yl)-3-(1H-pyrrol-1-yl)propan-1-one] had an IC50 of at least 50 µM.

As for `COc1ccc(-c2[nH]c3ccc(C4CCN(C(=O)C5CCN(C(C)=O)CC5)CC4)cc3c2CC(F)(F)F)cc1OC` [Example 345, 1-(4-(4-(2-(3,4-dimethoxyphenyl)-3-(2,2,2-trifluoroethyl)-1H-indol-5-yl)piperidine-1-carbonyl)piperidin-1-yl)ethan-1-one], the IC50 worked out at 25.2 µM.

`COc1ccc(-c2[nH]c3ccc(C4CCN(C(=O)CCC(=O)N(C)C)CC4)cc3c2CC(F)(F)F)cc1OC` [Example 346, 4-(4-(2-(3,4-dimethoxyphenyl)-3-(2,2,2-trifluoroethyl)-1H-indol-5-yl)piperidin-1-yl)-N,N-dimethyl-4-oxobutanamide] gave an IC50 of 2.94 µM.
